tested on: not listed separately; assay: Sulforhodamine B (SRB) growth inhibition / growth arrest assay; assay type: cell-based; conditions: cell line not stated
Description: A growth inhibition assay was also employed for the evaluation of candidate HSP90 inhibitors:
Assessment of cytotoxicity by Sulforhodamine B (SRB) assay: calculation of 50% inhibitory concentration (IC50).
• 1) Determine cell number by haemocytometer. • 2) Using an 8 channel multipipettor, add 160 μl of the cell suspension (3600 cells/well or 2×10^4 cells/ml) to each well of a 96-well microtitre plate. • 3) Incubate overnight at 37° C. in a CO2 incubator. […]
• 8) Tip off medium into sink and immerse plate slowly into 10% ice cold trichloroacetic acid (TCA). […] Leave for 15 mins. • 12) Wash off unbound SRB stain with four washes of 1% acetic acid. • 13) Dry plates in incubator. • 14) Solubilise SRB using 100 μl of 10 mM Tris base and put plates on plate shaker for 5 mins. • 15) Determine absorbance at 540 nm using a plate reader. Calculate mean absorbance for quadruplicate wells and express as a percentage of value for control, untreated wells. • 16) Plot % absorbance values versus log drug concentration and determine the IC50.

| SMILES | IC50 [µM] |
| --- | --- |
| Cc1ccc(-c2nc(N)nc3sc(-c4ncon4)cc23)c(C)c1 [Example 10, 4-(2,4-dimethyl-phenyl)-6-[1,2,4]oxadiazol-3-yl-thieno[2,3-d]pyrimidin-2-ylamine] | < 50 |

target: T1, human full-length HSP90 (Homo sapiens, UniProt P08238); assay: Fluorescence polarization assay (competitive displacement of probe RBT0051001-FAM from HSP90); assay type: binding; conditions: activity range stated in each example; read-out: activity in the fluorescence polarization assay
T1 construct: E. coli expressed human full-length HSP90 protein, purified >95%; made in house; host or cells: E. coli
Source text: Fluorescence Polarization Assay
Fluorescence polarization {also known as fluorescence anisotropy} measures the rotation of a fluorescing species in solution, where the larger molecule the more polarized the fluorescence emission. When the fluorophore is excited with polarized light, the emitted light is also polarized. The molecular size is proportional to the polarization of the fluorescence emission.
The fluoroscein-labelled probe —RBT0051001-FAM—
binds to HSP90 {full-length human, full-length yeast or N-terminal domain HSP90} and the anisotropy {rotation of the probe:protein complex} is measured.
Test compound is added to the assay plate, left to equilibrate and the anisotropy measured again. Any change in anisotropy is due to competitive binding of compound to HSP90, thereby releasing probe.
Chemicals are of the highest purity commercially available and all aqueous solutions are made up in AR water. • 1) Costar 96-well black assay plate #3915 • 2) Assay buffer of (a) 100 mM Tris pH7.4; (b) 20 mM KCl; (c) 6 mM MgCl2. Stored at room temperature. • 3) BSA (bovine serum albumen) 10 mg/ml (New England Biolabs # B9001S) • 4) 20 mM probe in 100% DMSO stock concentration. Stored in the dark at RT. Working concentration is 200 nM diluted in AR water and stored at 4° C. Final concentration in assay 80 nM. • 5) E. coli expressed human full-length HSP90 protein, purified >95% (see, e.g., Panaretou et al., 1998) and stored in 50 μL aliquots at −80° C.
• 1) Add 100 μl 1× buffer to wells 11A and 12A (=FP BLNK) • 2) Prepare assay mix—all reagents are kept on ice with a lid on the bucket as the probe is light-sensitive.
• 3) Aliquot 100 μl assay mix to all other wells • 4) Seal plate and leave in dark at room temp for 20 minutes to equilibrate Compound Dilution Plate—1×3 dilution series • 1) In a clear 96-well v-bottom plate-{# VWR 007/008/257} add 10 μl 100% DMSO to wells B1 to H11 • 2) To wells A1 to A11 add 17.5 μl 100% DMSO • 3) Add 2.5 μl cpd to A1. This gives 2.5 mM {50×} stock cpd-assuming cpds 20 mM. • 4) Repeat for wells A2 to A10. Control in columns 11 and 12. • 5) Transfer 5 μl from row A to row B—not column 12. Mix well. • 6) Transfer 5 μl from row B to row C. […] In column 11 {provides standard curve} only add compound B11-H11. Add 2 μl of 100 mM standard cpd to wells B12-H12 {is positive control} • 13) The Z′ factor is calculated from zero controls and positive wells. It typically gives a value of 0.7-0.9.
The compounds tested in the above assay were assigned to one of two activity ranges, namely A=<10 μM; B=>10 μM, and those assignments are reported above.

T1 sequence (P08238 whole entry): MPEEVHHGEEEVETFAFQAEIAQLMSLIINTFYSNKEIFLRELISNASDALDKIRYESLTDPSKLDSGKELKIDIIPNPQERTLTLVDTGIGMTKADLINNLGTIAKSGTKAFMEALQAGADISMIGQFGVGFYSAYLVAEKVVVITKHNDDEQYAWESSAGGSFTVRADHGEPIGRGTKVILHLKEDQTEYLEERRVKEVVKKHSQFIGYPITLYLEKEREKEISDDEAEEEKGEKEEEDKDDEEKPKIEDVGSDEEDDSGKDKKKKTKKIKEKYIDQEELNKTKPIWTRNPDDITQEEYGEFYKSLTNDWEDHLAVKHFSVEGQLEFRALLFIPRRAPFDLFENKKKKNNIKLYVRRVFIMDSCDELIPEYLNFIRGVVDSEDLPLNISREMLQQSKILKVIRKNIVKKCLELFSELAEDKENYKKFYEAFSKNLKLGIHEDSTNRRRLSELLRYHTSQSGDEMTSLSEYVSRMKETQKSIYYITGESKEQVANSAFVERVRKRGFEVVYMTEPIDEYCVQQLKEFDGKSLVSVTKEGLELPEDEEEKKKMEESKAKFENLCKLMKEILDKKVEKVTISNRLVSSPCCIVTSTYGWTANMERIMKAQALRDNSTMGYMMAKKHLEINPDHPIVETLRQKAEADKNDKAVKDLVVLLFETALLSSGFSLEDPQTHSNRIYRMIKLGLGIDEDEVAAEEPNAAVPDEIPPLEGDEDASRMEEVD

| IC50 [µM] | SMILES |
| --- | --- |
| < 10 | Cc1ccc(-c2nc(N)nc3sc(-c4ncon4)cc23)c(C)c1 [Example 10, 4-(2,4-dimethyl-phenyl)-6-[1,2,4]oxadiazol-3-yl-thieno[2,3-d]pyrimidin-2-ylamine] |
| < 10 | Nc1nc(-c2ccc(Cl)cc2Cl)c2cc(-c3n[nH]c(N)n3)sc2n1 [Example 38, 6-(5-Amino-1H-[1,2,4]triazol-3-yl)-4-(2,4-dichloro-phenyl)-thieno[2,3-d]pyrimidin-2-ylamine] |
| < 10 | CCN(CC)CCOc1cc(-c2nc(N)nc3sc(-c4n[nH]c(N)n4)cc23)c(Cl)cc1Cl [Example 39, 6-(5-Amino-1H-[1,2,4]triazol-3-yl)-4-[2,4-dichloro-5-(2-diethylamino-ethoxy)-phenyl]-thieno[2,3-d]pyrimidin-2-ylamine] |
| < 10 | CCN(CC)CCOc1cc(-c2nc(N)nc3sc(-c4nn[nH]n4)cc23)c(Cl)cc1Cl [Example 40, 4-[2,4-Dichloro-5-(2-diethylamino-ethoxy)-phenyl]-6-(2H-tetrazol-5-yl)-thieno[2,3-d]pyrimidin-2-ylamine] |
| < 10 | CCOC(=O)/C=C/c1cc2c(-c3cc(OCCN(CC)CC)c(Cl)cc3Cl)nc(N)nc2s1 [Example 41, 3-{2-Amino-4-[2,4-Dichloro-5-(2-diethylamino-ethoxy)-phenyl]-thieno[2,3-d]pyrimidin-6-yl}-acrylic acid ethyl ester] |

Source: patent US20090069336A1, “PYRIMIDOTHIOPHENE COMPOUNDS” (VERNALIS (CAMBRIDGE) LIMITED., priority 2004, published 2009)
